Patent US20040248871A1, “Use of lysyl oxidase inhibitors for cell culture and tissue engineering” (priority 2001, published 2004)

What was measured:
[1] = test system: chondrocytes, fibroblasts, keratinocytes; assay: Toxicity and multiplication of the cells in culture at the standard concentration; assay type: cell-based; conditions: 50 μg/ml
Method: βAPN (50 μg/ml) is added immediately upon inoculation, to the culture medium which is renewed every 2 days and applied to the cultures of chondrocytes as well as to those of fibroblasts then of keratinocytes during the formation of the reconstructed skin.

[2] = test system: keratinocytes; assay: Keratinocytes cultured in monolayer: cell count and MTT viability test; assay type: cell-based, human
Text: (§1) The support of the reconstructed skin model is constituted by a dermal substrate (DS) with a base of collagen-glycosaminoglycan cross-linked by chitosan according to the technique published by Duplan-Perrat et al (J Invest Dermatol 2000 114:365). Fibroblasts are inoculated the inside of the DS in order to obtain an equivalent dermis. The reconstituted skin (RS) is obtained by inoculating the keratinocytes after 15 days (day 15) of culture in equivalent dermis. The dermal fibroblasts are obtained from explants of human prepuces after dermal-epidermal separation and cultured in monolayer in DMEM medium (Sigma) supplemented by 10% fœtal calf serum, 4 mM L-glutamine, EGF (Austral Biologic) at 10 ng/ml, penicillin at 100 UI/ml, gentamicin at 100 μg/ml and amphotericin B at 1 μg/ml. The keratinocytes are from a human skin biopsy sample after dermal-epidermal separation by trypsination. The cells are inoculated nutritive layers (irradiated fibroblasts) and cultured in DMEM and HAM F12 at 30% supplemented with fœetal calf serum at 10%, EGF at 10 ng/ml, hydrocortisone at 1.6 ng/ml, umulin at 0.12 UI/ml, choleratoxin at 0.1 nM, triiodothyronine at 0.2 μM, adenine at 24 μg/ml, 4 mM L-Glutamine, penicillin at 100 UI/ml, gentamicin at 100 μg/ml and amphotericin B at 1 μg/ml.
(§2) In fact, the number of these cells is reduced by approximately 50% compared to the control when they are cultured in the presence of 600 μg/ml of βAPN. […] The results of the MTT viability test confirm those of the cell count. […] It must be emphasized that βAPN at 200 μg/ml can optionally cause an increase in cell activity (proliferation and viability) on the fibroblasts inoculated at a low density, and on the fibroblasts and the keratinocytes inoculated at a high density.

[3] = test system: fibroblasts; assay: Fibroblasts cultured in monolayer: cell count and MTT viability test; assay type: cell-based, human
Text: as §1, §2

[4] = test system: chondrocytes from the sternum of chicken embryos; assay: Dedifferentiation of chicken embryo chondrocytes in two-dimensional culture on plastic (fluorography of 14C-proline labelled collagens, morphology); assay type: cell-based
Text: a) The experimental chondrocyte culture model is the one with the culture of chicken embryo chondrocytes on plastic in two dimensions. The embryonic state of the cells allows a high level of synthesis of the collagens, unlike the adult chondrocytes. The chicken sternum from which the chondrocytes originates Makes it possible to obtain two pure sub-populations of chondrocytes capable or not capable of subsequently hypertrophying (respectively, the chondrocytes of the cranial or caudal section of the sternum). […] The results which are described always distinguish the sub-population of the chondrocytes studied.
The cultures with 4 mM L-glutamine antibiotics, and 25 μg/ml ascorbate (factor necessary for the stability of the secreted collagen triple helix units) are continued for 2 weeks in the presence or absence of 10% serum, optionally replaced by 100 ng/ml insulin, and by 50 μg/ml βAPN. The absence of serum necessitates the addition of protective agents (1 mM cysteine and 1 mM pyruvate). A day before taking the samples, 10 μCi of 14C Proline is added to the cultures the lawns or media of which are then pepsinated (0.2 mg pepsin/ml/pH 4/24 hours) and subjected to electrophoretic (SDS PAGE gradient of 4.5 at 15% acrylamide) then fluorographic analysis. The fluorographs then reveal the only pepsin-resistant protein bands, essentially the collagens and lipocalines (proteins with lipid transport). The known position of these bands allows the indication of the dedifferentiation of the cells by the appearance of the α2 I chain of collagen I associated with the lowering of the synthesis of the collagens of cartilage type.
βAPN (50 μg/ml) is added immediately upon inoculation, to the culture medium which is renewed every 2 days and applied to the cultures of chondrocytes as well as to those of fibroblasts then of keratinocytes during the formation of the reconstructed skin. […]

[5] = test system: hypertrophic chondrocytes of chicken embryos; assay: Reversibility of effects on bridgings of collagen IX chains in cell lawn of hypertrophic chondrocytes (fluorography); assay type: cell-based; conditions: washings with PBS then medium without βAPN
Method: Chondrocytes of the cranial section of the sternum were inoculated at a high concentration (5 million cells per P35 Petri dish) then subjected to 24 hours of radio-labelling with proline 14C on the 7th, 14th and […] day of culture (respectively day 7, day 14 and day 21).
βAPN was present (+) or absent. (−) for the entire duration of the culture, or present only during the first week ((+)).

[6] = test system: LOX, LOXL1 expression by chondrocytes; assay: Immunodecoration with anti LOX, LOXL1 antibodies of extracts of chondrocyte cell lawns and culture medium; assay type: cell-based, chicken; conditions: 6th or 14th day of culture
Method: The Lysyl oxidase activity was assayed with 300,000 dpm of labelled elastin on the Lysine, substrate of the enzyme (Shackelton and Hulmes Anal. Biochem. (1990) 185: 359-362). The determination of the presence of Lysyl oxidases in the cultures of chondrocytes is carried out according to the standard methods of immunodecoration of the supports onto which the bands separated from the proteins extracted from the corresponding culture media or from the cell lawns have been transferred.
The day before the samples are taken, the cell lawn is washed three times with medium without serum. The medium is then changed for 24 hours with complete medium without serum.
On the 6th or 14th day of culture the media are sampled and precipitated in a standard fashion with TCA 10% final/4° C./[…]. The centrifugation pellets are rinsed with acetone then solubilized in a 50 μl electrophoresis buffer. The rinsed cell lawns are lysed 2 hours/4° C. (300 μl/P35) in the mixture 8M urea, 0.5% Nonidet, 16 mM disodium phosphate pH 8 and protease inhibitors. […]
After separation by SDS PAGE and transfer by Western Blot, the protein bands are analyzed by immunodecoration using polyclonal anti-LOX and anti-LOXL1 antibodies from rabbits, then a second anti-rabbit antibody marked with alkaline phosphatase before development with the reagent NBT/BCIP (Roche Diagnostic GmBH, Mannheim, Germany).

With N#CCCN [βAPN, β-aminopropionitrile] the “toxicity for the cells” value [1] was “not toxic”, the “reduction of proliferation of the keratinocytes” value ([2]; 200 μg/ml) was “approximately 10%” and the “effect on the viability and the multiplication” value ([2]; 200 μg/ml, isolated cultures) was “little effect”. For the same molecule, the “reduction of the number of cells compared to the control” value ([2]; 600 μg/ml) was “approximately 50%”, the “concentration with inhibiting effect on proliferation” value ([2]; cell count and MTT) was “greater than 500 μg/ml” and the “toxic effect on cells at confluence” value ([2]; up to 800 μg/ml) was “no toxic effect”. The “proliferation of the fibroblasts” value ([3]; 200 μg/ml) was “slightly increased”, the “effect on the viability and the multiplication” value ([3]; 200 μg/ml, isolated cultures) was “little effect” and the “reduction of the number of cells compared to the control” value ([3]; 600 μg/ml) was “approximately 50%”. For the same molecule, the “concentration with inhibiting effect on proliferation” value ([3]; cell count and MTT) was “greater than 500 μg/ml”, the “toxic effect on cells at confluence” value ([3]; up to 800 μg/ml) was “no toxic effect” and the “effectiveness against dedifferentiation of the chondrocytes” value ([4]; 50 μg/ml, after 2 weeks of culture) was “total”. For the same molecule, the “biochemical dedifferentiation of the chondrocytes (collagen I secreted, stopping of the synthesis of collagen X)” value ([4]; 50 μg/ml, cranial chondrocytes, in the presence of serum, 2 weeks, 2D on plastic) was “totally inhibited”, the “expression of collagen X by the hypertrophic (cranial) chondrocytes” value ([4]; after 3 days of culture, in the presence of serum, media and cell lawns) was “allows the normal expression of collagen X” and the “reversibility of the modifications in the bridgings between chains of collagen IX after elimination of βAPN” value [5] was at most 6 days. The “expression of Lysyl oxidase molecules (LOX, LOXL1)” value [6] was “does not modify the expression of Lysyl oxidase molecules”.
